Assay results from paper PMC6204753, “Non-native autoinducer analogs capable of modulating the SdiA quorum sensing receptor in Salmonella enterica serovar Typhimurium” (Beilstein Journal of Organic Chemistry, 2018).
“Also recorded” adds a separate entry of the source. Where two headings read alike, the source gives them in different places.

What was measured:
Assay type in all cases: cell-based
SdiA [1] = target: T1, SdiA (Salmonella enterica subsp. enterica serovar Typhimurium, UniProt O66040); assay: S. Typhimurium-pJNS25 SdiA reporter, agonism (luminescence); details: for activity in the SdiA reporter assay (in words): S. Typhimurium reporter; for Emax: read-out: activation (%); for EC50: agonism dose–response; for fold increase: potency of thiolactone over corresponding lactone (EC50 ratio)
Text: (§1) Biological assays for SdiA activity. Cell-based reporter strains that rely on detecting the transcriptional activity of LuxR-type receptors are commonly used to assess the activity of exogenous ligands. We used the S. Typhimurium-pJNS25 reporter strain constructed by Smith and Ahmer and also used by Janssens et al. to examine SdiA activity. This strain naturally produces SdiA and contains a reporter plasmid with the promoter region for srgE fused to the luxABCDE operon of V. fischeri (see Experimental section for details of all strains and plasmids). SdiA activity is thus reported by the production of luciferase and resulting bioluminescence. We also prepared an SdiA reporter in E. coli (JLD271-pJN105SE-pSC11SE) to examine S. Typhimurium SdiA activity in an alternate background and with a different reporter gene output. […] This reporter construct uses an arabinose inducible promoter to produce S. Typhimurium SdiA and the promoter region for srgE fused to lacZ to report SdiA activity. SdiA activity is then measured using standard β-galactosidase assays. In both reporter strains, signal was normalized to the difference between the positive control (10 μM OOHL) and the negative control (1% DMSO; no compound).
(§2) Salmonella SdiA reporter assay. S. Typhimurium-pJNS25 was grown 16–18 h overnight in LB, diluted 1:100 in fresh LB medium, and then incubated for 6 h at 37 °C with shaking at 200 rpm in the presence of compounds (1% DMSO). […] All compounds were screened at 100 μM and 1 μM in triplicate in agonism and antagonism assays. […] Dose–response analyses were performed by preparing dilutions of compounds in DMSO and testing each concentration in the agonism or antagonism assays. Competition dose–response assays (data in Figure 5) were performed in the same manner as the antagonism assays, except instead of OOHL being added to the subculture, the antagonist being tested was added. Non-linear regression curve fits were generated using GraphPad Prism software (version 6) using variable slope (four parameter) dose–response analysis.

SdiA [2] = target: T1, SdiA; assay: S. Typhimurium-pJNS25 SdiA reporter, competitive antagonism against 10 nM L-OOHL; details: for inhibition at 1 µM: read-out: Antagonism 1 μM Inhibition (%); for inhibition at 100 µM: read-out: Antagonism 100 μM Inhibition (%); for IC50: against 10 nM L-OOHL (EC90); for Emax: 100% minus lowest % activity in presence of 10 nM L-OOHL (2)
Text: as §1, §2

S. Typhimurium SdiA = S. Typhimurium SdiA (Salmonella enterica subsp. enterica serovar Typhimurium, UniProt O66040); assay: E. coli JLD271-pJN105SE-pSC11SE SdiA reporter, antagonism (β-galactosidase); details: E. coli reporter; against OOHL at its EC50 (1.5 nM); NA = not active; 0.0015 µM
Text: Biological assays for SdiA activity. Cell-based reporter strains that rely on detecting the transcriptional activity of LuxR-type receptors are commonly used to assess the activity of exogenous ligands. We used the S. Typhimurium-pJNS25 reporter strain constructed by Smith and Ahmer and also used by Janssens et al. to examine SdiA activity. This strain naturally produces SdiA and contains a reporter plasmid with the promoter region for srgE fused to the luxABCDE operon of V. fischeri (see Experimental section for details of all strains and plasmids). SdiA activity is thus reported by the production of luciferase and resulting bioluminescence. We also prepared an SdiA reporter in E. coli (JLD271-pJN105SE-pSC11SE) to examine S. Typhimurium SdiA activity in an alternate background and with a different reporter gene output. E. coli JLD271 is the sdiA mutant of K-12 E. coli. This reporter construct uses an arabinose inducible promoter to produce S. Typhimurium SdiA and the promoter region for srgE fused to lacZ to report SdiA activity. SdiA activity is then measured using standard β-galactosidase assays. In both reporter strains, signal was normalized to the difference between the positive control (10 μM OOHL) and the negative control (1% DMSO; no compound).
E. coli SdiA reporter assay. The β-galactosidase assay using the E. coli SdiA reporter was performed as reported previously, with minor modifications. The reporter strain was grown 16–18 h overnight in LB, diluted 1:10 in fresh LB medium, and incubated at 37 °C with shaking at 200 rpm until it reached an OD600 of 0.25. Expression of SdiA was induced by the addition of 4 mg/mL arabinose, and the culture was incubated in the presence of compounds (1% DMSO) for 4 h at 37 °C with shaking at 200 rpm. […] A 50 μL aliquot of culture from each well was lysed in 200 μL of Z-buffer and 8 μL of chloroform, and a 100 μL aliquot of this lysate was incubated with 25 μL of 4 mg/mL ONPG for 20 min at 30 °C before reading absorption at 420 nm and 550 nm using a Biotek Synergy 2 plate reader. Non-linear regression curve fits were generated using GraphPad Prism software (version 6) using variable slope (four parameter) dose–response analysis.

[3] = 1 μM compound, average ± STD, change in activity from 10 nM 2 (OOHL)
[4] = 100 μM compound, average ± STD, change in activity from 10 nM 2 (OOHL)
[5] = maximal activity (efficacy) from agonism dose–response, 10 μM OOHL = 100%, DMSO = 0%
[6] = maximal activation of the antagonists (partial agonism), Table 3
[7] = maximal inhibition, read-out: inhibition (%)

T1 sequence (O66040 entry or part of it): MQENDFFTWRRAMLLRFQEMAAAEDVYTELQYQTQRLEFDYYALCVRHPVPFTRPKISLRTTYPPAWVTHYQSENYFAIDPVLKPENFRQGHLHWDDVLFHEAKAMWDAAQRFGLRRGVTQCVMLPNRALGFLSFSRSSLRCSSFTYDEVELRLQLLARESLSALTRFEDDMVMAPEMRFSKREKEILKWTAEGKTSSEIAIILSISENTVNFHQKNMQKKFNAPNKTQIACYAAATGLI
Sequence of S. Typhimurium SdiA (O66040 entry or part of it): as above

Structure (SMILES)	inhibition at 1 µM (SdiA [2]; [3]) [%]	inhibition at 100 µM (SdiA [2]; [4]) [%]	EC50 (SdiA [1]; read-out: EC50) [nM]	Emax (SdiA [1]; [5]) [%]	Emax (SdiA [1]; [6]) [%]	Emax (SdiA [2]; [7]) [%]	other results
O=C(CCCOc1cccc(Br)c1)N[C@H]1CCSC1=O [compound 16, reference compound]	8 ± 14	84 ± 6	–	–	–	–	activity in the SdiA reporter assay (in words) (SdiA [1]): multimodal, or non-monotonic; Emax (SdiA [1]): 48%; IC50 (SdiA [2]): 45000 nM; Emax (SdiA [2]; read-out: inhibition (%), maximal inhibition): 89%; inhibition (%) (S. Typhimurium SdiA): failed to display antagonistic activity; also recorded: did not display any activity
O=C(Cc1ccccc1Br)N[C@H]1CCOC1=O [C9]	9 ± 8	-48 ± 13	63.5	103	–	–	–
CSc1ccc(CC(=O)N[C@H]2CCOC2=O)cc1 [E6]	25 ± 16	44 ± 13	–	–	74	49	–
CCOC(=O)CNC(=O)Cc1cccc([N+](=O)[O-])c1 [F40]	21 ± 8	43 ± 4	–	–	56	33	IC50 (SdiA [2]): 27800 nM
CCCCCCCCCCCC(=O)N[C@H]1CCOC1=O [A5]	17 ± 10	43 ± 4	–	–	57	> 50	–
O=C(COc1ccc(I)cc1)N[C@H]1CCOC1=O [E22]	-5 ± 11	-15 ± 8	10.4	108	–	–	–
O=C(Cc1ccc(Br)cc1)N[C@@H]1CCOC1=O [B4]	41 ± 15	16 ± 11	–	–	52	50	–
COc1ccc(CC(=O)N[C@H]2CCOC2=O)cc1 [C24]	–	–	252	–	–	–	Antagonism 1 μM Inhibition (%) (SdiA [2]; [3]): -11 ± 3%; Antagonism 100 μM Inhibition (%) (SdiA [2]; [4]): 4 ± 16%
O=C(Cc1ccc(I)cc1)N[C@H]1CCOC1=O [C10]	–	–	–	–	–	–	EC50 (SdiA [1]): 47.2 nM; Emax (SdiA [1]): 67%; inhibition at 1 µM (SdiA [2]): 28 ± 6%; inhibition at 100 µM (SdiA [2]): 27 ± 13%
CCCCCC(=O)N[C@H]1CCOC1=O [A2]	15 ± 4	3 ± 1	20.9	81	–	–	–
O=C(Cc1cccc([N+](=O)[O-])c1)N[C@H]1CCOC1=O [C14]	0	-17 ± 9	28.3	–	–	–	–
O=C(CC1CCCC1)N[C@H]1CCOC1=O [B12]	7 ± 7	14 ± 9	54.7	93	–	–	–
CCCC(=O)N[C@H]1CCSC1=O [F8]	-5 ± 10	-23 ± 11	62.8	91	–	–	fold increase (SdiA [1]): 9.20
CCCCCCCCCCCCOc1ccc(C(=O)N[C@H]2CCOC2=O)cc1 [R9]	22 ± 10	42 ± 13	–	–	6	63	–
O=C(Cc1cccc(Cl)c1)N[C@H]1CCOC1=O [C6]	9 ± 16	-20 ± 6	51.9	95	–	–	–
CCCCCCCC(=O)OCC(O)CO (racemic) [compound 23, 1-octanoyl-rac-glycerol, reference compound]	8 ± 14	12 ± 4	–	–	–	–	activity in the SdiA reporter assay (in words) (SdiA [1]): no agonism; also recorded: no activity
[N-]=[N+]=NCCCCCCCCCCCC(=O)N[C@H]1CCOC1=O [Az-11]	-1 ± 17	-35 ± 6	–	–	–	–	EC50 (SdiA [1]): 125 nM; activation (%) (SdiA [1]; [5]): fully agonize; Emax (SdiA [1]): 110%
O=C(Cc1cccc([N+](=O)[O-])c1)N[C@H]1CCSC1=O [F11]	-11 ± 7	-16 ± 13	2.47	97	–	–	fold increase (SdiA [1]): 11.5
O=C(Cc1cccc(I)c1)N[C@H]1CCOC1=O [C11]	15 ± 11	-4 ± 2	20.6	90	–	–	–
O=C(Cc1cccc(Br)c1)N[C@H]1CCOC1=O [C8]	21 ± 10	-22 ± 9	19.1	96	–	–	–
Cc1cccc(CC(=O)N[C@H]2CCOC2=O)c1 [E1]	-6 ± 7	-14 ± 13	66.4	99	–	–	–
CCOC(=O)CNC(=O)Cc1ccc(OC)cc1 [F47]	3 ± 14	36 ± 10	–	–	61	42	–
O=C(Cc1ccc(-c2ccccc2)cc1)N[C@H]1CCOC1=O [C18]	11 ± 3	52 ± 10	–	–	48	40	–
CCCC(=O)N[C@H]1CCOC1=O [A1, reference compound]	–	–	578	–	–	–	activation (%) (SdiA [1]; [5]): 100%; Antagonism 1 μM Inhibition (%) (SdiA [2]; [3]): 7 ± 5%; Antagonism 100 μM Inhibition (%) (SdiA [2]; [4]): -10 ± 11%
CSc1cccc(CC(=O)N[C@H]2CCOC2=O)c1 [E7]	20 ± 14	12 ± 13	26	91	–	–	–
CCOC(=O)CNC(=O)Cc1ccc(Br)cc1 [F39]	27 ± 9	53 ± 11	–	–	50	55	–
O=C(CCc1cccc(I)c1)N[C@H]1CCOC1=O [E33]	20 ± 6	38 ± 10	–	–	67	19	IC50 (SdiA [2]): 9640 nM
CSc1ccc(CCC(=O)N[C@H]2CCOC2=O)cc1 [E34]	21 ± 15	39 ± 8	–	–	66	30	–
